Assay results taken from PubChem BioAssay (NCI).
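Test compounds were applied to cells in 96-well plates for 48 hours at 5 doses. TGI marks complete inhibition of growth.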

Key:
Assay in all cases: NCI anticancer screen, dose series, 48 h
RXF 393 renal = test system: RXF 393 renal
NCI-H522 lung = test system: NCI-H522 lung
LOX IMVI melanoma = test system: LOX IMVI melanoma
M19-MEL melanoma = test system: M19-MEL melanoma
SW-620 colon = test system: SW-620 colon
KM20L2 colon = test system: KM20L2 colon
IGROV1 ovarian = test system: IGROV1 ovarian
MALME-3M melanoma = test system: MALME-3M melanoma
DU-145 prostate = test system: DU-145 prostate
NCI-H23 lung = test system: NCI-H23 lung
HCT-116 colon = test system: HCT-116 colon
MDA-N = test system: MDA-N
CAKI-1 renal = test system: CAKI-1 renal
MDA-MB-231 breast = test system: MDA-MB-231 breast
UACC-257 melanoma = test system: UACC-257 melanoma
HOP-62 NSCLC = test system: HOP-62 NSCLC
K-562 leukemia = test system: K-562 leukemia
HOP-92 NSCLC = test system: HOP-92 NSCLC
SNB-78 CNS = test system: SNB-78 CNS
M14 melanoma = test system: M14 melanoma
LXFL 529 NSCLC = test system: LXFL 529 NSCLC
RPMI-8226 leukemia = test system: RPMI-8226 leukemia
OVCAR-4 ovarian = test system: OVCAR-4 ovarian
HS 578T breast = test system: HS 578T breast
HT29 colon = test system: HT29 colon
KM12 colon = test system: KM12 colon
DLD-1 colon = test system: DLD-1 colon
OVCAR-8 ovarian = test system: OVCAR-8 ovarian
SNB-19 CNS = test system: SNB-19 CNS
A498 renal = test system: A498 renal
SK-MEL-5 melanoma = test system: SK-MEL-5 melanoma
DMS 114 small cell lung = test system: DMS 114 small cell lung
HCT-15 colon = test system: HCT-15 colon
SN12C renal = test system: SN12C renal
HCC-2998 colon = test system: HCC-2998 colon
SK-MEL-2 melanoma = test system: SK-MEL-2 melanoma
MOLT-4 leukemia = test system: MOLT-4 leukemia
786-0 renal = test system: 786-0 renal
OVCAR-3 ovarian = test system: OVCAR-3 ovarian
NCI/ADR-RES ovarian = test system: NCI/ADR-RES ovarian
PC-3 prostate = test system: PC-3 prostate
BT-549 breast = test system: BT-549 breast
SK-OV-3 ovarian = test system: SK-OV-3 ovarian
CCRF-CEM leukemia = test system: CCRF-CEM leukemia
SF-268 CNS = test system: SF-268 CNS
U251 CNS = test system: U251 CNS
HL-60(TB) leukemia = test system: HL-60(TB) leukemia
SF-539 CNS = test system: SF-539 CNS
MCF7 breast = test system: MCF7 breast
TK-10 renal = test system: TK-10 renal
NCI-H226 lung = test system: NCI-H226 lung
UACC-62 melanoma = test system: UACC-62 melanoma
ACHN renal = test system: ACHN renal
SR leukemia = test system: SR leukemia
XF 498 CNS = test system: XF 498 CNS
OVCAR-5 ovarian = test system: OVCAR-5 ovarian
MDA-MB-435 = test system: MDA-MB-435
EKVX NSCLC = test system: EKVX NSCLC
SK-MEL-28 melanoma = test system: SK-MEL-28 melanoma
SF-295 CNS = test system: SF-295 CNS
COLO 205 colon = test system: COLO 205 colon
NCI-H460 lung = test system: NCI-H460 lung
T-47D breast = test system: T-47D breast
UO-31 renal = test system: UO-31 renal
A549 NSCLC = test system: A549 NSCLC
SNB-75 CNS = test system: SNB-75 CNS

## CCC(=S)N(C)O
RXF 393 renal
  TGI: > 100 µM
NCI-H522 lung
  TGI: 8.28 µM
LOX IMVI melanoma
  TGI: 51.8 µM
M19-MEL melanoma
  TGI: > 51.7 µM
SW-620 colon
  TGI: > 100 µM
KM20L2 colon
  TGI: > 100 µM
IGROV1 ovarian
  TGI: > 37 µM
MALME-3M melanoma
  TGI: > 100 µM
DU-145 prostate
  TGI: > 100 µM
NCI-H23 lung
  TGI: > 100 µM
HCT-116 colon
  TGI: 30.9 µM
MDA-N
  TGI: > 100 µM
CAKI-1 renal
  TGI: > 100 µM
MDA-MB-231 breast
  TGI: > 100 µM
UACC-257 melanoma
  TGI: > 100 µM
HOP-62 NSCLC
  TGI: > 95.3 µM
K-562 leukemia
  TGI: > 79.8 µM
HOP-92 NSCLC
  TGI: > 100 µM
SNB-78 CNS
  TGI: > 100 µM
M14 melanoma
  TGI: > 100 µM
LXFL 529 NSCLC
  TGI: > 100 µM
RPMI-8226 leukemia
  TGI: 21.8 µM
OVCAR-4 ovarian
  TGI: > 100 µM
HS 578T breast
  TGI: > 100 µM
HT29 colon
  TGI: 24.1 µM
KM12 colon
  TGI: > 93.1 µM
DLD-1 colon
  TGI: > 100 µM
OVCAR-8 ovarian
  TGI: > 97.1 µM
SNB-19 CNS
  TGI: > 100 µM
A498 renal
  TGI: > 100 µM
SK-MEL-5 melanoma
  TGI: 51 µM
DMS 114 small cell lung
  TGI: 5.82 µM
HCT-15 colon
  TGI: > 100 µM
SN12C renal
  TGI: > 100 µM
HCC-2998 colon
  TGI: > 95.7 µM
SK-MEL-2 melanoma
  TGI: 86.6 µM
MOLT-4 leukemia
  TGI: 46.9 µM
786-0 renal
  TGI: > 81.1 µM
OVCAR-3 ovarian
  TGI: > 100 µM
NCI/ADR-RES ovarian
  TGI: > 100 µM
PC-3 prostate
  TGI: > 100 µM
BT-549 breast
  TGI: > 100 µM
SK-OV-3 ovarian
  TGI: > 100 µM
CCRF-CEM leukemia
  TGI: 12.3 µM
SF-268 CNS
  TGI: > 100 µM
U251 CNS
  TGI: > 100 µM
HL-60(TB) leukemia
  TGI: 13.6 µM
SF-539 CNS
  TGI: 84.1 µM
MCF7 breast
  TGI: > 100 µM
TK-10 renal
  TGI: > 95.3 µM
NCI-H226 lung
  TGI: > 100 µM
UACC-62 melanoma
  TGI: 78.3 µM
ACHN renal
  TGI: > 100 µM
SR leukemia
  TGI: 24.1 µM
XF 498 CNS
  TGI: 29.8 µM
OVCAR-5 ovarian
  TGI: > 100 µM
MDA-MB-435
  TGI: > 100 µM
EKVX NSCLC
  TGI: > 100 µM
SK-MEL-28 melanoma
  TGI: > 100 µM
SF-295 CNS
  TGI: > 100 µM
COLO 205 colon
  TGI: > 79 µM
NCI-H460 lung
  TGI: 70.3 µM
T-47D breast
  TGI: > 100 µM
UO-31 renal
  TGI: 68.9 µM
A549 NSCLC
  TGI: > 100 µM
SNB-75 CNS
  TGI: > 95.4 µM

## CC(C)C1OCC(CO)CO1 (stereo not drawn)
RXF 393 renal
  TGI: > 100 µM
NCI-H522 lung
  TGI: > 100 µM
LOX IMVI melanoma
  TGI: > 100 µM
SW-620 colon
  TGI: > 100 µM
MALME-3M melanoma
  TGI: > 100 µM
DU-145 prostate
  TGI: > 100 µM
NCI-H23 lung
  TGI: > 100 µM
HCT-116 colon
  TGI: > 100 µM
MDA-N
  TGI: > 100 µM
CAKI-1 renal
  TGI: > 100 µM
MDA-MB-231 breast
  TGI: > 100 µM
UACC-257 melanoma
  TGI: > 100 µM
HOP-62 NSCLC
  TGI: > 100 µM
HOP-92 NSCLC
  TGI: > 100 µM
M14 melanoma
  TGI: > 100 µM
RPMI-8226 leukemia
  TGI: > 100 µM
OVCAR-4 ovarian
  TGI: > 100 µM
HS 578T breast
  TGI: > 100 µM
HT29 colon
  TGI: > 100 µM
KM12 colon
  TGI: > 100 µM
OVCAR-8 ovarian
  TGI: > 100 µM
SNB-19 CNS
  TGI: > 100 µM
A498 renal
  TGI: > 100 µM
SK-MEL-5 melanoma
  TGI: > 100 µM
HCT-15 colon
  TGI: > 100 µM
SN12C renal
  TGI: > 100 µM
HCC-2998 colon
  TGI: > 100 µM
SK-MEL-2 melanoma
  TGI: > 100 µM
MOLT-4 leukemia
  TGI: > 100 µM
786-0 renal
  TGI: > 100 µM
OVCAR-3 ovarian
  TGI: > 100 µM
NCI/ADR-RES ovarian
  TGI: > 100 µM
PC-3 prostate
  TGI: > 100 µM
BT-549 breast
  TGI: > 100 µM
SK-OV-3 ovarian
  TGI: > 100 µM
CCRF-CEM leukemia
  TGI: > 100 µM
SF-268 CNS
  TGI: > 100 µM
U251 CNS
  TGI: > 100 µM
HL-60(TB) leukemia
  TGI: > 100 µM
SF-539 CNS
  TGI: > 100 µM
MCF7 breast
  TGI: > 100 µM
TK-10 renal
  TGI: > 100 µM
NCI-H226 lung
  TGI: > 100 µM
UACC-62 melanoma
  TGI: > 100 µM
ACHN renal
  TGI: > 100 µM
SR leukemia
  TGI: > 100 µM
OVCAR-5 ovarian
  TGI: > 100 µM
MDA-MB-435
  TGI: > 100 µM
EKVX NSCLC
  TGI: > 100 µM
SK-MEL-28 melanoma
  TGI: > 100 µM
SF-295 CNS
  TGI: > 100 µM
COLO 205 colon
  TGI: > 100 µM
NCI-H460 lung
  TGI: > 100 µM
T-47D breast
  TGI: > 100 µM
UO-31 renal
  TGI: > 100 µM
A549 NSCLC
  TGI: > 100 µM
SNB-75 CNS
  TGI: > 100 µM
